The text below walks through data of PubChem BioAssay (NCI).

SMILES strings stand for the structures. Where “and” joins values, the source holds several entries; their conditions need not be identical. Equal entries are not always repeated.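 Assay format: 96-well plates, 48-hour exposure. GI50 marks 50% less growth. Definition used: TGI = concentration required for complete inhibition of growth.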

Test systems include MCF7 breast; OVCAR-5 ovarian; K-562 leukemia; UO-31 renal; CCRF-CEM leukemia; HOP-62 NSCLC; SR leukemia; IGROV1 ovarian; HCT-116 colon; MALME-3M melanoma.
Holding throughout (experiment): NCI-60 cell line screen, 48 h

Take `Cc1c2c(nn1-c1ccc(S(=O)(=O)NC(=S)NC(=O)c3ccccc3)cc1)-c1ccccc1CC2`: the GI50 in the test on MCF7 breast was 35.9 µM; in the test on OVCAR-5 ovarian, > 100 µM; in the test with K-562 leukemia, 6.09 µM; in the test with UO-31 renal, > 100 µM; in the test with CCRF-CEM leukemia it was > 100 µM; with HOP-62 NSCLC, > 100 µM. The results for the GI50 in the test with SR leukemia and with IGROV1 ovarian were 0.759 µM and > 100 µM, respectively. Also, the TGI in the test with MCF7 breast, in the test on OVCAR-5 ovarian, in the test with K-562 leukemia, in the test on UO-31 renal, in the test with CCRF-CEM leukemia and with HOP-62 NSCLC was > 100 µM each time. In addition, the TGI in the test on SR leukemia and with IGROV1 ovarian was > 100 µM throughout.
On to `NCCSC(c1ccccc1)(c1ccccc1)c1ccccc1`, for which the GI50 is 0.354 µM in the test with MCF7 breast; 1.92 µM in the test with OVCAR-5 ovarian; 0.322 µM in the test on K-562 leukemia; 2.03 µM in the test on UO-31 renal; 1.85 µM in the test with CCRF-CEM leukemia; 2.43 µM in the test on HOP-62 NSCLC. For the same compound, the GI50 is 0.34 µM in the test on SR leukemia, 0.373 µM in the test on HCT-116 colon and 1.25 µM in the test with IGROV1 ovarian. Further, the TGI stood at 1.78 µM in the test with MCF7 breast; 6.95 µM in the test with OVCAR-5 ovarian; 1.61 µM with K-562 leukemia; 12.9 µM with UO-31 renal; 6 µM in the test on CCRF-CEM leukemia; 14.2 µM in the test on HOP-62 NSCLC. The figures for the TGI in the test with SR leukemia, in the test with HCT-116 colon and in the test on IGROV1 ovarian were 1.82 µM, 1.49 µM and 8.32 µM, respectively.
On to `COc1cc2nc3cc([N+](=O)[O-])ccc3c(NCCNCC(C)O)c2cc1OC` (stereo not given), for which the GI50 is 0.332 µM in the test on MCF7 breast; 2.61 µM with OVCAR-5 ovarian; 1.67 µM in the test on UO-31 renal; 0.34 µM with CCRF-CEM leukemia; 0.713 µM in the test on HOP-62 NSCLC; 0.286 µM in the test on SR leukemia. The GI50 in the test on MALME-3M melanoma is 0.785 µM; in the test with HCT-116 colon, 0.358 µM; in the test with IGROV1 ovarian it was 0.495 µM. The TGI came to 1.57 µM with MCF7 breast; 9.41 µM in the test with OVCAR-5 ovarian; 5.84 µM with UO-31 renal; 3.13 µM with CCRF-CEM leukemia; 2.87 µM in the test on HOP-62 NSCLC; 2.16 µM in the test with SR leukemia. Also, the TGI in the test with MALME-3M melanoma was 2.25 µM; with HCT-116 colon it was 1.75 µM; in the test with IGROV1 ovarian it was 2.26 µM.
With `CN1CCN(CCCN2c3ccccc3Sc3ccc(Cl)cc32)CC1`, the GI50 in the test on MCF7 breast is 5.79 µM and 47.1 µM; with OVCAR-5 ovarian it was 7.09 µM and 43.1 µM; in the test with CCRF-CEM leukemia it was 6.46 µM; in the test on HOP-62 NSCLC, 6.32 µM and 48.5 µM; in the test on SR leukemia, 2.99 µM; with MALME-3M melanoma, 6.01 µM and 39.7 µM. Also, the GI50 in the test with HCT-116 colon is 5.15 µM and 39.9 µM. The TGI in the test on MCF7 breast is 14 µM and 63 µM; in the test on OVCAR-5 ovarian, 14 µM and 62.9 µM; in the test with UO-31 renal, 9.49 µM; in the test on CCRF-CEM leukemia, 15.1 µM; in the test with HOP-62 NSCLC it was 13.6 µM and 85.6 µM; in the test with SR leukemia, 11.3 µM. Besides, the TGI in the test with MALME-3M melanoma was 14.3 µM and 55.9 µM; in the test with HCT-116 colon, 12 µM and 54.2 µM; with IGROV1 ovarian, 11.7 µM and 67.3 µM.
For the compound `NC(N)=N/N=C/c1c(-c2cccnc2)nc2sc(Cl)cn12`, the GI50 with MCF7 breast is 8.27 µM; in the test with OVCAR-5 ovarian, 12.7 µM; in the test on K-562 leukemia it was 19.1 µM; with UO-31 renal it was 33.8 µM; in the test with CCRF-CEM leukemia, 6.66 µM; with HOP-62 NSCLC, 18 µM. Moreover, the GI50 is 17.1 µM in the test on SR leukemia and 17.5 µM in the test on IGROV1 ovarian. The TGI in the test on MCF7 breast was > 100 µM; with OVCAR-5 ovarian, 25.3 µM; with K-562 leukemia it was 43.3 µM; with UO-31 renal, > 100 µM; with CCRF-CEM leukemia, 23.9 µM; in the test with HOP-62 NSCLC, 31.9 µM. Further, the figures for the TGI with SR leukemia and in the test on IGROV1 ovarian were > 100 µM and 58.5 µM, respectively.
Regarding `COc1ccc2nc3cccc([N+](=O)[O-])c3c(NC(C)CN(C)C)c2c1` (stereo not given), the GI50 is 1.17 µM in the test with MCF7 breast; 1.73 µM in the test with OVCAR-5 ovarian; 1.56 µM in the test with K-562 leukemia; 1.7 µM in the test on UO-31 renal; 2.21 µM in the test on CCRF-CEM leukemia; 1.18 µM with HOP-62 NSCLC. Besides, the GI50 in the test with SR leukemia was 2.16 µM; in the test with HCT-116 colon, 1.44 µM; in the test on IGROV1 ovarian, 1.67 µM. Moreover, the TGI in the test on MCF7 breast turned out to be 4.36 µM; in the test with OVCAR-5 ovarian, 5.21 µM; with K-562 leukemia it was 4.03 µM; with UO-31 renal it was 3.62 µM; in the test on CCRF-CEM leukemia it was 7.62 µM; with HOP-62 NSCLC, 2.96 µM. In addition, the values for the TGI in the test on HCT-116 colon and in the test with IGROV1 ovarian were 7.49 µM and 5.54 µM, respectively.
Consider `N#CC1=C(N)Oc2c(sc3c(Br)cccc23)C1c1ccc(Cl)cc1` (stereo not given), for which the GI50 is 0.295 µM with MCF7 breast; 1.91 µM in the test on OVCAR-5 ovarian; 0.322 µM in the test on K-562 leukemia; 0.614 µM with UO-31 renal; 0.368 µM with CCRF-CEM leukemia; 0.89 µM with HOP-62 NSCLC. The GI50 in the test with SR leukemia is 0.342 µM; with HCT-116 colon, 0.429 µM; in the test on IGROV1 ovarian, 0.787 µM. The TGI turned out to be 5.07 µM with MCF7 breast; 5.98 µM in the test on OVCAR-5 ovarian; 3.54 µM with K-562 leukemia; 2.54 µM in the test on UO-31 renal; 2.36 µM with CCRF-CEM leukemia; 6.42 µM in the test with HOP-62 NSCLC. The TGI came to 2.69 µM in the test with SR leukemia, 1.79 µM in the test with HCT-116 colon and 4.35 µM with IGROV1 ovarian.
For `COc1ccc(NC(=O)c2ccc(NC3=C(Cl)C(=O)N(Cc4ccccc4)C3=O)cc2)c(OC)c1`, the GI50 in the test with MCF7 breast was 33.7 µM; in the test on OVCAR-5 ovarian it was 49.3 µM; in the test on K-562 leukemia, 8.18 µM; in the test with UO-31 renal it was 40.5 µM; in the test on HOP-62 NSCLC, 19 µM; with SR leukemia, 1.39 µM. The values for the GI50 in the test with HCT-116 colon and in the test on IGROV1 ovarian were 5.4 µM and 10.8 µM, respectively. Further, the TGI in the test on MCF7 breast was > 100 µM; in the test on OVCAR-5 ovarian, > 100 µM; in the test on K-562 leukemia it was 43 µM; in the test on UO-31 renal it was > 100 µM; with HOP-62 NSCLC it was 53.7 µM; in the test with SR leukemia, 3.98 µM. In addition, the values for the TGI in the test with HCT-116 colon and in the test on IGROV1 ovarian were 25.6 µM and 73.8 µM, respectively.
